Reference: the supplement of paper PMC10290057
Several values for one entry are separate records, joined by “and”; a condition that tells them apart may be missing. Equal values may be shown once. Where a name gives a salt, the structure may show the parent alone.

Test system: HCT116
Assay: efficacy (fitted maximal change in viability relative to DMSO control); higher = less cytotoxic (negative = loss of viability)
Conditions: 48 h
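Also: Luminescence-based viability readout, five doses per compound, normalized against on-plate DMSO and empty-well controls, followed by dose-response curve fitting for every drug.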

Row | Compound | efficacy
1 | COC1=CC=C(C=C1O)C/2=C/C(=O)C3=C(O2)C=C(O[C@@H]4O[C@H](CO[C@@H]5O[C@@H](C)[C@H](O)[C@@H](O)[C@H]5O)[C@@H](O)[C@H](O)[C@H]4O)C=C3O [Diosmin] | -15.2%
2 | CN(C)CCOC(c1ccccc1)c1ccccc1 [Diphenhydramine hydrochloride] | -12.9%
3 | OCCN(CCO)c1nc(N2CCCCC2)c2nc(N(CCO)CCO)nc(N3CCCCC3)c2n1 [Dipyridamole] | -30.3%
4 | CC(=O)O[C@@]12CO[C@@H]1C[C@H](O)[C@@]1(C)C(=O)[C@H](O)C3=C(C)[C@@H](OC(=O)[C@H](O)[C@@H](NC(=O)OC(C)(C)C)c4ccccc4)C[C@@](O)([C@@H](OC(=O)c4ccccc4)[C@H]21)C3(C)C [Docetaxel] | -56.4%
5 | CN(CCOc1ccc(N[S+](C)(=O)[O-])cc1)CCc1ccc(N[S+](C)(=O)[O-])cc1 [Dofetilide] | -5.68%
6 | NCCc1ccc(O)c(O)c1 [Dopamine hydrochloride] | -16.8%
7 | C[C@H](O)[C@H]1[C@@H]2[C@H](C)C(=C(\N2C1=O)C(O)=O)/S[C@@H]3CN[C@H](CN[S+](N)([O-])=O)C3 [Doripenem] | 5.86%
8 | CCN[C@H]1C[C@H](C)[S+](=O)([O-])c2sc([S+](N)(=O)[O-])cc21 [Dorzolamide hydrochloride] | -11%
9 | Cn1c(=O)c2c(ncn2CC2OCCO2)n(C)c1=O [Doxofylline] | -7.38%
10 | CC1C\2C(O)C3C(N(C)C)C(=O)\C(=C(O)/C3(O)C(=O)C2=C(O)/C4=C1C=CC=C4O)C(N)=O (configuration not stated) [Doxycycline] | -26.7%
11 | C[C@@H]1[C@H]\2[C@H](O)[C@H]3[C@H](N(C)C)\C(=C(C(N)=O)/C(=O)[C@@]3(O)\C(=C2C(=O)C4=C(O)C=CC=C14)O)O [Doxycycline] | 12.1%
12 | C[C@]\12CCC(=O)\C=C1[C@@H]3C[C@@H]3[C@@H]4[C@@H]2CC[C@@]5(C)[C@H]4[C@@H]6C[C@@H]6[C@@]57CCC(=O)O7 [Drospirenone] | -38.8%
13 | C[C@]12CCC3[C@@H](CC[C@H]4NC(=O)\C=C/[C@]34C)[C@@H]1CC[C@@H]2C(=O)NC5=CC(=CC=C5C(F)(F)F)C(F)(F)F (some centres not stated) [Dutasteride] | -20%
14 | Cn1c(=O)c2c(ncn2CC(O)CO)n(C)c1=O (configuration not stated) [Dyphylline] | -13%
15 | O=C1NNc2nc(CN3Cc4ccccc4C3)nc3cccc1c23 [E-7449] | -29.7%
16 | COc1ccc([S+](=O)([O-])Nc2cc(-c3csc(C#N)c3)ccc2C)cc1 [EL-102] | -62%
17 | CN1CCN(C(=O)[C@H]2[C@@H](C(=O)O)[C@H]3CC[C@@H]2O3)CC1 [EMPM] | -12%
18 | C[C@@H](C1CC[C@@]2(O)C3=CC(=O)[C@@H]4C[C@@H](O)[C@@H](O)C[C@]4(C)[C@H]3CC[C@]12C)[C@H](O)CCC(C)(C)O (some centres not stated) [Ecdysone] | -17.9%
19 | C\C1=N\N(C(=O)C1)C2=CC=CC=C2 [Edaravone] | -11.9%
20 | Cc1cc(Oc2ccc3nc(COc4ccc(CC5SC(=O)NC5=O)cc4)n(C)c3c2)cc(C)c1N (configuration not stated) [Efatutazone] | -24.7%
21 | O=C1Nc2ccc(Cl)cc2[C@@](C#CC2CC2)(C(F)(F)F)O1 [Efavirenz] | -85.4%
22 | NCCCC(N)(C(=O)O)C(F)F (configuration not stated) [Eflornithine Hydrochloride] | 19%
23 | COc1cc2c(cc1OC)CN(CCc1ccc(NC(=O)c3cccc4c(=O)c5cccc(OC)c5[nH]c34)cc1)CC2 [Elacridar] | -16.8%
24 | COC1=C(F)C(=CC=C1)C/2=C(C)/N(CC3=C(F)C=CC=C3C(F)(F)F)C(=O)N(C[C@H](NCCCC(O)=O)C4=CC=CC=C4)C2=O [Elagolix] | -32.8% and -32.2%
25 | CN(NC(=O)CC(=O)NN(C)C(=S)c1ccccc1)C(=S)c1ccccc1 [Elesclomol (STA-4783)] | -39.3%
26 | CC1=NN(c2ccc(C)c(C)c2)C(=O)/C1=N/Nc1cccc(-c2cccc(C(=O)O)c2)c1O [Eltrombopag olamine] | -17.2%
27 | COC1=CC2=C(C=C1CC3=C(F)C(=CC=C3)Cl)C(=O)\C(=C/N2[C@H](CO)C(C)C)C(O)=O [Elvitegravir] | -72.2%
